Reference: patent US4694004A, “Semicarbazide derivatives, processes for preparation thereof and pharmaceutical composition comprising the same” (Fujisawa Pharmaceutical Co., Ltd., priority 1984, dated 1987)

Key:
[1] = system: Paw edema induced by carrageenin; assay: Carrageenin Foot Edema (antiinflammatory activity); assay type: in vivo, male Sprague-Dawley rats; settings: Dose: 32 mg/kg, orally 60 minutes before phlogogen; edema volume 3 hours after 1% carrageenin; rats
Description: (1) Carrageenin Foot Edema
Five male Sprague-Dawley rats weighing about 200 g were used per group.
Paw edema was induced by subplantar injection of 1% carrageenin (0.1 ml/rat) into the right hind paw. The test drug was suspended in 0.5% methylcellulose and administered orally 60 minutes before phlogogen. Paw volume was measured with plethysmometer (Ugo Bazil Co., Ltd.) by water displacement immersing the paw to the lateral malleolus. The difference of paw volume before and 3 hours after the phlogogen was designated as edema volume.
The data were analyzed statistically by student's t-test.

[2] = system: writhing syndrome induced by acetic acid; assay: Acetic Acid Induced Writhing (analgesic activity); assay type: in vivo, male ddY strain mice; settings: Dose: 32 mg/kg, orally 60 minutes before 0.6% acetic acid i.p.; observed from 3 to 13 minutes; mice
Description: (1) Acetic Acid Induced Writhing
Ten male ddY strain mice were used per group. To estimate the frequency of writhing syndrome, the animals were observed from 3 to 13 minutes after an intraperitoneal injection of 0.2 ml/10 g of 0.6% acetic acid. The drugs were given orally 60 minutes before acetic acid. The frequency of writhing syndrome in the treated animals was compared with that in the nontreated control animals.

| Structure (SMILES) | Inhibition (%) of carrageenin foot edema [1] [%] | Inhibition (%) of acetic acid induced writhing [2] [%] |
| --- | --- | --- |
| O=C(Nc1cnccn1)NN1CC=CCC1 [Compound E, N-(Pyrazinylcarbamoylamino)-1,2,3,6-tetrahydropyridine] | 54.7 | – |
| O=C(NN1CC=CCC1)NN1CCCC1 [Compound G, N-[(1-Pyrrolidinylcarbamoyl)amino]-1,2,3,6-tetrahydropyridine] | – | 84.7 |
| O=C(Nc1ccncc1)NN1CC=CCC1 [Compound A, N-[(4-Pyridylcarbamoyl)amino]-1,2,3,6-tetrahydropyridine] | 41.4 | 73.4 |
| O=C(Nc1ccc(Cl)nc1)NN1CC=CCC1 [Compound F, N-[[(2-Chloropyridin-5-yl)carbamoyl]amino]-1,2,3,6-tetrahydropyridine] | 49.9 | 75.1 |
| O=C(Nc1cccnc1)NN1CC=CCC1 [Compound B, N-[(3-Pyridylcarbamoyl)amino]-1,2,3,6-tetrahydropyridine] | 45.9 | 95.5 |
| O=C(NN1CC=CCC1)NN1CC=CCC1 [Compound H, N,N'-[Bis-(1,2,3,6-tetrahydropyridin-1-yl)]urea] | – | 82.0 |
| O=C(Nc1ccccn1)NN1CC=CCC1 [Compound C, N-[(2-Pyridylcarbamoyl)amino]-1,2,3,6-tetrahydropyridine] | 50.9 | – |
| O=C(Nc1ccncn1)NN1CC=CCC1 [Compound D, N-[(4-Pyrimidinylcarbamoyl)amino]-1,2,3,6-tetrahydropyridine] | 48.0 | 68.5 |
